Key:
HOC/ADR = assay: Sensitization of MDR cell line to Adriamycin; assay type: cell-based, human; details: IC50 of Adriamycin / IC50 of Adriamycin with IC10 dose of compound
Experimental: To determine the sensitization potential of compounds, HOC/ADR and MCF-7/PAX were used. Based on the cytotoxic potential of the compounds against several cancer and non-cancerous cell lines (Table 1), the concentrations of applied compounds were adjusted. IC10 values was considered as the concentrations, which should not decrease the cell viability under 90%. After the addition of compounds, Adriamycin (concentration range 0.1–20 µM) and paclitaxel (concentration range 0.1–10 µM) were added to HOC/ADR and MCF-7/PAX, respectively. The sensitization potential of the compounds was determined as the ratio of the IC50 of cytostatic agent (Adriamycin/paclitaxel) to the IC50 of cytostatic agent affected by the compound in concentration corresponding to the IC10 value. Fold change greater than 1 indicated synergic effect of cytostatic agent and the tested compound.
After that, the plates were washed 1× with PBS and fresh DMEM medium supplemented with tested compounds at final concentration corresponding their IC10 value was added, except for positive control wells. Subsequently, Adriamycin (concentration range 0.1–20 µM) or paclitaxel (concentration range 0.1–10 µM) was added to the appropriate cell line for 72 h. After incubation, the cells were washed 1× with PBS and the resazurin solution (0.03 mg/mL) was added to evaluate the cell viability as described above. IC50 values of cytostatics were calculated for both the control and compounds; a fold change was counted up. When this fold change is higher than 1 indicates a synergism between the tested cytostatic agent and the compound, while a fold change lower than 1 means an antagonism. Fold change=IC50value of cytostatic treated cells only/IC50value of cytostatic treated cells in addition of the compound

HOC/ADR spheroids [1] = assay: 3D spheroid formation; assay type: cell-based, human; details: 1 µM
Experimental: (§1) To monitor the effect of selenoesters on spheroid formation, HOC, HOC/ADR, MCF-7 and MCF-7/PAX cell lines were used. 24 h after HOC cells’ inoculation, the diameter of formed spheroids was measured. The spheroids with diameters above 200 µm are characterized by the presence of a concentration gradient of oxygen, nutrients, and metabolites. The ovarian cancer cells (HOC, HOC/ADR) formed aggregates in which single cells could be recognized (Figs. 3, 4). In contrast, breast cancer cell lines (MCF-7, MCF-7/PAX) (Figs. 5, 6) formed compact spheroids where individual cells could not be distinguished because of close cell–cell interactions. According to this fact, the easier penetration and action of compounds into spheroids of ovarian cancer cells is expected. Upon selenoesters’ addition, the images of spheroids were taken regularly to determine their areas relative to the control spheroids in medium containing the solvent (1% V/V DMSO).
(§2) Human ovarian and breast cancer cells (parental and resistant) were seeded into U bottom 96-well plates (VWR, Radnor, Pennsylvania, United States) coated with 0.8% SeaKem LE Agarose at a cell density 0.5 × 10^5 cells/mL (HOC, HOC/ADR) and 1 × 10^5 cell/mL (MCF-7, MCF-7/PAX) in 100 µL of medium with appropriate cytostatic agent. After 24 h, the plates were enriched with 100 µL of medium with tested compounds K3, K4, K7 at the final concentration of 1 µM, except for control cells (100 µL medium with 1% V/V DMSO). Spheroids were recorded 0; 24; 48 and 72 h after exposure to tested compounds by using the light microscope Axio Vert. A1 (Zeiss, Jena, Germany) with photo documentation equipment, Axiocam ICC 1 and Axio Vision 4.8 software (Zeiss), and the spheroid areas were determined by using ImageJ (National Institute of Health, Bethesda, Maryland, United States). Subsequently, a spheroid growth was calculated according to equation: Spheroid area%=SAS at t/SAC at t×100 where SAS represents the area of spheroids treated with the compound; SAC is the control spheroid area; and the exposure time (t = 0; 24; 48; 72 h).

MCF-7 spheroids = assay: 3D spheroid formation; assay type: cell-based, human; details: 1 µM, whole treatment (24–72 h)
Experimental: as §1, §2

HOC/ADR spheroids [2] = assay: Sensitization of resistant 3D spheroids to Adriamycin; assay type: cell-based, human; details: Adriamycin IC50 / Adriamycin + selenoester IC50; K3 3 µM, K4 5 µM, K7 5 µM; 72 h
Experimental: (§3) In the previous section, the cytotoxic activity of selenoesters was determined against several 3D models of sensitive and resistant cell lines. Subsequently, the selenoesters were tested for their potential to sensitize the drug-resistant HOC/ADR and MCF-7/PAX spheroids. Mature 72 h old spheroids were incubated with the non-toxic concentration of selenoesters with Adriamycin or paclitaxel (concentration range 0.6–80 µM) for HOC/ADR or MCF-7/PAX, respectively (Table 8). After another 72 h incubation, the sensitization rate (fold change) was evaluated. […] The highest sensitization rate of ovarian spheroids (HOC/ADR) was induced by 5 µM K4, followed by 5 µM K7, and 3 µM K3.
(§4) To determine the sensitization potential of compounds, HOC/ADR and MCF-7/PAX were seeded into the ultra-low attachment 96-well plates (Sigma-Aldrich) at a cell density 0.5 × 10^5 cells/mL. After 3 days of spheroid formation, spheroids were carefully washed once with PBS and fresh DMEM medium (99 µL) containing the appropriate concentration of compounds K3, K4, K7 was added. Using a binary serial compound dilution, the concentration range of both cytostatics was prepared in the new 96-well plates (0.06–8 mM). After 1 µL transfer of cytostatics into the corresponding cell line, the final concentration range were 0.6–80 µM. The required volume of DMSO (1% V/V) was added to the positive control. After an incubation of 72 h, 100 µL of CellTiter-Glo 3D Reagent (Promega) was added to each well. Plates with spheroids were incubated for 25 min at room temperature. Afterwards, the luminescent signal was recorded.

MCF-7/PAX spheroids [3] = assay: Sensitization of resistant 3D spheroids to paclitaxel; assay type: cell-based, human; details: paclitaxel IC50 / paclitaxel + selenoester IC50; K3 3 µM, K4 3 µM, K7 5 µM; 72 h
Experimental: as §3, §4

HOC spheroids = assay: 3D spheroid formation; assay type: cell-based; details: Homo sapiens, 24 h, read-out: inhibition of HOC spheroid growth
Experimental: as §1, with “According to this fact, the easier penetration and action of compounds into spheroids of ovarian cancer cells is expected. Upon selenoesters’ addition, the images of spheroids were taken regularly to determine their areas relative to the control spheroids in medium containing the solvent (1% V/V DMSO).” left out
Human ovarian and breast cancer cells (parental and resistant) were seeded into U bottom 96-well plates (VWR, Radnor, Pennsylvania, United States) coated with 0.8% SeaKem LE Agarose at a cell density 0.5 × 10^5 cells/mL (HOC, HOC/ADR) and 1 × 10^5 cell/mL (MCF-7, MCF-7/PAX) in 100 µL of medium with appropriate cytostatic agent. […] Spheroids were recorded 0; 24; 48 and 72 h after exposure to tested compounds by using the light microscope Axio Vert. A1 (Zeiss, Jena, Germany) with photo documentation equipment, Axiocam ICC 1 and Axio Vision 4.8 software (Zeiss), and the spheroid areas were determined by using ImageJ (National Institute of Health, Bethesda, Maryland, United States). […]

MCF-7/PAX spheroids [4] = assay: 3D spheroid formation; assay type: cell-based, human; details: 1 µM, first 24 h
Experimental: as §1, §2

| Structure (SMILES) | Fold change (HOC/ADR) | decrease of HOC/ADR spheroid growth (HOC/ADR spheroids [1]; first 24 h) | MCF-7 spheroid growth relative to control (MCF-7 spheroids) | HOC/ADR Fold change (3D) (HOC/ADR spheroids [2]) | MCF-7/PAX Fold change (3D) (MCF-7/PAX spheroids [3]) | inhibition at 1 µM (HOC spheroids) | HOC/ADR spheroid area compared to the control (HOC/ADR spheroids [1]) | effect on MCF-7/PAX spheroid growth (in words) (MCF-7/PAX spheroids [4]) |
| --- | --- | --- | --- | --- | --- | --- | --- | --- |
| CC(=O)C[Se]C(=O)c1ccc(Br)cc1 [K3] | (1.4 ± 0.1)× | 45% | under 80% | (1.2 ± 0.2)× | (0.9 ± 0.0)× | – | – | – |
| CC(=O)C[Se]C(=O)c1ccccc1C(F)(F)F [K4] | (1.4 ± 0.1)× | – | – | (2.3 ± 0.1)× | (1.0 ± 0.1)× | – | – | – |
| CC(=O)C[Se]C(=O)c1ccc(C(C)(C)C)cc1 [K7] | – | – | – | (1.6 ± 0.1)× | (1.1 ± 0.1)× | > 40% | 75% | slowed down |

— PMC9023544, “Ketone-selenoesters as potential anticancer and multidrug resistance modulation agents in 2D and 3D ovarian and breast cancer in vitro models” (Scientific Reports, 2022)
